Laboratory results as given in ChEMBL document CHEMBL1125116 (J Med Chem, 1990).

Target: D(2) dopamine receptor (Rattus norvegicus, UniProt P61169)
Assay: Evaluated in vitro for the affinity towards Dopamine receptor D2 of rat striatal tissue

D(2) dopamine receptor, sequence (P61169 whole entry): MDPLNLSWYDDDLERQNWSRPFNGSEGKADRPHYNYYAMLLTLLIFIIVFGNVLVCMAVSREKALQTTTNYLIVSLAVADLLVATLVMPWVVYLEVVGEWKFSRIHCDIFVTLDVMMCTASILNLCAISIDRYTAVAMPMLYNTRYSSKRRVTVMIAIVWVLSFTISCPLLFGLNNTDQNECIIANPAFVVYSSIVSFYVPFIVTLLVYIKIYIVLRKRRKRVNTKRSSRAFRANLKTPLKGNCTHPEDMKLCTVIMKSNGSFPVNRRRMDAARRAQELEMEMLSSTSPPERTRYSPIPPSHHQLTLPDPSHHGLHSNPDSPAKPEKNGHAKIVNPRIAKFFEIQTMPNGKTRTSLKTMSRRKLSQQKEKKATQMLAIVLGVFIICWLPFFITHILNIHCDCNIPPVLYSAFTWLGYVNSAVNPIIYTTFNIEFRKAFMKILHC

Structure (SMILES)	Kd [nM]
CCN1CCC[C@H]1CNC(=O)c1cc(I)ccc1OC [IODOPRIDE]	3
CCN1CCC[C@H]1CNC(=O)c1c(OC)ccc(S(N)(=O)=O)c1I [IODOSULPIRIDE]	1.5
CCN1CCC[C@H]1CNC(=O)c1c(OC)ccc(I)c1O [IOLOPRIDE]	0.43
COc1cc(N=[N+]=[N-])c(I)cc1C(=O)NC1CCN(Cc2ccccc2)CC1 [IODOAZIDOCLEBOPRIDE]	14
